ChEMBL document CHEMBL3120141, “Discovery of (1R,6S)-5-[4-(1-cyclobutyl-piperidin-4-yloxy)-phenyl]-3,4-diaza-bicyclo[4.1.0]hept-4-en-2-one (R,S-4a): histamine H(3) receptor inverse agonist demonstrating potent cognitive enhancing and wake promoting activity” (Bioorg Med Chem Lett, 2014)
Converted amounts (≈) assume the structure as drawn. The source made the active and inactive calls. No cut-off for these calls is given here.

Key:
[1] = target: Voltage-gated inwardly rectifying potassium channel KCNH2 (Homo sapiens, UniProt Q12809); assay: Inhibition of human ERG channel by patch clamp technique
[2] = Oral bioavailability in rat at 5 mg/kg; type: ADME, organism-based; details: in vivo
[3] = target: Histamine H3 receptor (Rattus norvegicus, UniProt Q9QYN8); assay: Displacement of [3H]NAMH from rat histamine H3 receptor transfected in CHO cells; type: cell-based
[4] = Terminal half life in monkey at 1 mg/kg, iv; type: ADME, organism-based, Macaca mulatta; set-up: dose 1 mg/kg, route intravenous; details: rhesus monkey, in vivo, read-out: beta t1/2 (converted)
[5] = Cmax in dog at 3 mg/kg, po; type: ADME, organism-based, Canis lupus familiaris; set-up: dose 3 mg/kg, route oral; details: in vivo
[6] = Plasma protein binding in human; type: ADME, cell-free; details: read-out: PPB (converted)
[7] = system: Rattus norvegicus; assay: Toxicity in EEG/EMG rat model assessed as sleep rebound at 1 to 30 mg/kg, ip; type: organism-based; set-up: dose 1-30 mg/kg, route intraperitoneal; details: in vivo
[8] = system: Rattus norvegicus; assay: Enhancement of short term memory in rat social recognition memory model assessed as decrease in investigation ratio at 0.03 to 0.3 mg/kg, po; type: functional, organism-based
[9] = Half life in dog liver microsomes; type: ADME, Canis lupus familiaris
[10] = system: Rattus norvegicus; assay: Wake promoting activity in ip dosed EEG/EMG rat model assessed as cumulative wake time after 4 hrs; type: functional, organism-based
[11] = Plasma protein binding in dog; type: ADME, cell-free, Canis lupus familiaris; details: read-out: PPB (converted)
[12] = Solubility of the compound in water at pH 7.4; type: physicochemical
[13] = AUC in dog at 3 mg/kg, po; type: ADME, organism-based, Canis lupus familiaris; set-up: dose 3 mg/kg, route oral; details: plasma
[14] = Volume of distribution at steady state in dog at 1 mg/kg, iv; type: ADME, organism-based, Canis lupus familiaris; set-up: dose 1 mg/kg, route intravenous; details: in vivo, read-out: Vdss
[15] = Volume of distribution at steady state in monkey at 1 mg/kg, iv; type: ADME, organism-based, Macaca mulatta; set-up: dose 1 mg/kg, route intravenous; details: rhesus monkey, in vivo, read-out: Vdss
[16] = target: Histamine H4 receptor (Homo sapiens) (UniProt Q9H3N8); assay: Inhibition of human histamine H4 receptor at 10 uM
[17] = Apparent permeability across human Caco2 cells; type: ADME, cell-based; details: Caco-2
[18] = system: Rattus norvegicus; assay: Wake promoting activity in EEG/EMG rat model assessed as cumulative wake time at 10 mg/kg, ip after 1.5 hrs relative to vehicle-treated control; type: functional; details: route intraperitoneal
[19] = target: T1, Cytochrome P450 1A2 (Homo sapiens, UniProt P05177); assay: Inhibition of CYP1A2 (unknown origin); type: ADME
T1 sequence (P05177 whole entry): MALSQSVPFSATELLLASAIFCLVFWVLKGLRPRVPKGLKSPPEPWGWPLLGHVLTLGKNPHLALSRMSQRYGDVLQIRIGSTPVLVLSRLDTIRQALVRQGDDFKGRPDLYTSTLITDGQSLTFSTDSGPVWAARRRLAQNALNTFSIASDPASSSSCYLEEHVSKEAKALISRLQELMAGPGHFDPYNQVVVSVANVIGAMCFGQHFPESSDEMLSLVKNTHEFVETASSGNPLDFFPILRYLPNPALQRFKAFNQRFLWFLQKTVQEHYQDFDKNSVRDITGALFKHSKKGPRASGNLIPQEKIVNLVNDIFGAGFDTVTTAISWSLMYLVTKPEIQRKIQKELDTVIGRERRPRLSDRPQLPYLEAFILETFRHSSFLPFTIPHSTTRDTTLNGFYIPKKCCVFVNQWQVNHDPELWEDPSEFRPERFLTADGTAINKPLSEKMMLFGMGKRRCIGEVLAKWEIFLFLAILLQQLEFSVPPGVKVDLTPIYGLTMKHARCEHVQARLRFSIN

[20] = Oral bioavailability in dog at 3 mg/kg; type: ADME, organism-based, Canis lupus familiaris; details: in vivo
[21] = system: Rattus norvegicus; assay: Toxicity in EEG/EMG rat model assessed as abnormal behavior at 1 to 30 mg/kg, ip; type: organism-based; set-up: dose 1-30 mg/kg, route intraperitoneal; details: in vivo
[22] = target: T2, Histamine H3 receptor (Homo sapiens, UniProt Q9Y5N1); assay: Displacement of [3H]NAMH from human histamine H3 receptor transfected in CHO cells; type: cell-based
[23] = Half life in monkey liver microsomes; type: ADME, Macaca mulatta, Microsome; details: rhesus monkey
[24] = Clearance in rat at 1 mg/kg, iv; type: ADME, organism-based; set-up: dose 1 mg/kg, route intravenous; details: in vivo
[25] = Terminal half life in dog at 1 mg/kg, iv; type: ADME, organism-based, Canis lupus familiaris; set-up: dose 1 mg/kg, route intravenous; details: in vivo, read-out: beta t1/2 (converted)
[26] = Half life in rat liver microsomes; type: ADME
[27] = Oral bioavailability in monkey at 3 mg/kg; type: ADME, organism-based, Macaca mulatta; details: rhesus monkey, in vivo
[28] = Ratio of drug uptake in brain to plasma in rat at 10 mg/kg, ip after 6 hrs; type: ADME, organism-based; set-up: dose 10 mg/kg, route intraperitoneal; details: read-out: BPR
[29] = target: Cytochrome P450 2C9 (Homo sapiens, UniProt P11712); assay: Inhibition of CYP2C9 (unknown origin); type: ADME
[30] = target: Cytochrome P450 2D6 (Homo sapiens, UniProt P10635); assay: Inhibition of CYP2D6 (unknown origin); type: ADME
[31] = system: Rattus norvegicus; assay: Wake promoting activity in EEG/EMG rat model assessed as cumulative wake time at 30 mg/kg, ip after 7.5 to 18 hrs relative to vehicle-treated control; type: functional; details: route intraperitoneal
[32] = Volume of distribution at steady state in rat at 1 mg/kg, iv; type: ADME, organism-based; set-up: dose 1 mg/kg, route intravenous; details: in vivo, read-out: Vdss
[33] = target: Histamine H2 receptor (Homo sapiens) (UniProt P25021); assay: Inhibition of human histamine H2 receptor at 10 uM
[34] = Plasma protein binding in rat; type: ADME, cell-free; details: read-out: PPB (converted)
[35] = Cmax in rat at 5 mg/kg, po; type: ADME, organism-based; set-up: dose 5 mg/kg, route oral; details: in vivo
[36] = target: Cytochrome P450 2C19 (Homo sapiens, UniProt P33261); assay: Inhibition of CYP2C19 (unknown origin); type: ADME
[37] = system: Rattus norvegicus; assay: Wake promoting activity in EEG/EMG rat model assessed as cumulative wake time at 30 mg/kg, ip after 1.5 hrs relative to vehicle-treated control; type: functional; details: route intraperitoneal
[38] = system: Rattus norvegicus; assay: Wake promoting activity in EEG/EMG rat model assessed as cumulative wake time at 10 mg/kg, ip after 4 hrs (reference value: 86 +/- 7 mins); type: functional; details: route intraperitoneal
[39] = system: Rattus norvegicus; assay: Wake promoting activity in EEG/EMG rat model assessed as cumulative wake time at 3 mg/kg, ip after 4 hrs (reference value: 86 +/- 7 mins); type: functional; details: route intraperitoneal
[40] = Solubility of the compound in water at pH 2; type: physicochemical
[41] = target: T2, Histamine H3 receptor; assay: Inverse agonist activity at human histamine H3 receptor by [35S]GTPgammaS binding assay; type: functional
[42] = Ratio of drug uptake in brain to plasma in dog at 5 mg/kg, po after 6 hrs; type: ADME, organism-based, Canis lupus familiaris; set-up: dose 5 mg/kg, route oral; details: read-out: BPR
[43] = Half life in mouse liver microsomes; type: ADME, Microsome
[44] = Half life in human liver microsomes; type: ADME
[45] = system: Rattus norvegicus; assay: Wake promoting activity in EEG/EMG rat model assessed as cumulative wake time at 1 mg/kg, ip after 4 hrs (reference value: 86 +/- 7 mins); type: functional; details: route intraperitoneal
[46] = Clearance in monkey at 1 mg/kg, iv; type: ADME, organism-based, Macaca mulatta; set-up: dose 1 mg/kg, route intravenous; details: rhesus monkey, in vivo
[47] = system: Rattus norvegicus; assay: In vivo inhibition of histamine H3 receptor in ip dosed rat dipsogenia model assessed as inhibition of RAMH-induced dipsogenia; type: functional
[48] = Cmax in monkey at 3 mg/kg, po; type: ADME, organism-based, Macaca mulatta; set-up: dose 3 mg/kg, route oral; details: rhesus monkey, in vivo
[49] = system: Rattus norvegicus; assay: Toxicity in EEG/EMG rat model assessed as EEG activity at 1 to 30 mg/kg, ip; type: organism-based; set-up: dose 1-30 mg/kg, route intraperitoneal; details: in vivo
[50] = system: Rattus norvegicus; assay: Wake promoting activity in EEG/EMG rat model assessed as cumulative wake time at 30 mg/kg, ip after 4 hrs (reference value: 86 +/- 7 mins); type: functional; details: route intraperitoneal
[51] = AUC in monkey at 3 mg/kg, po; type: ADME, organism-based, Macaca mulatta; set-up: dose 3 mg/kg, route oral; details: rhesus monkey, plasma
[52] = Clearance in dog at 1 mg/kg, iv; type: ADME, organism-based, Canis lupus familiaris; set-up: dose 1 mg/kg, route intravenous; details: in vivo
[53] = target: Histamine H1 receptor (Homo sapiens) (UniProt P35367); assay: Inhibition of human histamine H1 receptor at 10 uM
[54] = AUC in rat at 5 mg/kg, po; type: ADME, organism-based, Plasma; set-up: dose 5 mg/kg, route oral; details: plasma
[55] = Terminal half life in rat at 1 mg/kg, iv; type: ADME, organism-based; set-up: dose 1 mg/kg, route intravenous; details: in vivo, read-out: beta t1/2 (converted)
[56] = target: Cytochrome P450 3A4 (Homo sapiens, UniProt P08684); assay: Inhibition of CYP3A4 (unknown origin); type: ADME
Chain of Cytochrome P450 3A4 (P08684 whole entry): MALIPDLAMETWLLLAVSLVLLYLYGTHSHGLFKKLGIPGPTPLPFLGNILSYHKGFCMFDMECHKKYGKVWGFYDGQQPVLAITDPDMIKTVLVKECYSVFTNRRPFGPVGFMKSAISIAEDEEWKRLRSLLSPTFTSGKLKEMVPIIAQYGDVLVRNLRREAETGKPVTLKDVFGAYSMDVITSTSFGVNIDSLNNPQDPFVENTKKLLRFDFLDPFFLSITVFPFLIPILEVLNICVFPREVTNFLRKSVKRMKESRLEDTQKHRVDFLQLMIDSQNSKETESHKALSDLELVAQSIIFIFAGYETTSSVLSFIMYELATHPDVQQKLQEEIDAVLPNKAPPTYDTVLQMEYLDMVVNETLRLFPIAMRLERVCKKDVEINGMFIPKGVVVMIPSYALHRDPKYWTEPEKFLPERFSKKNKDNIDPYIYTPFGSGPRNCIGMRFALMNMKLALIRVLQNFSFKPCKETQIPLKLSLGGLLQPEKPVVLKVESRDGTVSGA

T2 sequence (Q9Y5N1 whole entry): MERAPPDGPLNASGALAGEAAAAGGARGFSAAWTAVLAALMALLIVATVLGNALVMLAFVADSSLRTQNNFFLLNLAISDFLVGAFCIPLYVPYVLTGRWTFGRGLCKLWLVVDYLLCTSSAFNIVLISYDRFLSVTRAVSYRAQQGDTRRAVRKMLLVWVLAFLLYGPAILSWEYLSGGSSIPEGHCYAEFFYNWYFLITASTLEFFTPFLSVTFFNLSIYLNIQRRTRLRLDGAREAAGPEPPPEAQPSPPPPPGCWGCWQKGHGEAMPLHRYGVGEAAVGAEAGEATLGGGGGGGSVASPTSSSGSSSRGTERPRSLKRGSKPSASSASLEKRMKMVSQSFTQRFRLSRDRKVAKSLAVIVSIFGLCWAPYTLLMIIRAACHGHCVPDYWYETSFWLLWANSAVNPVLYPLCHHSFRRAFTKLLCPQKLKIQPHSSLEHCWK
Chain of Voltage-gated inwardly rectifying potassium channel KCNH2 (Q12809 whole entry): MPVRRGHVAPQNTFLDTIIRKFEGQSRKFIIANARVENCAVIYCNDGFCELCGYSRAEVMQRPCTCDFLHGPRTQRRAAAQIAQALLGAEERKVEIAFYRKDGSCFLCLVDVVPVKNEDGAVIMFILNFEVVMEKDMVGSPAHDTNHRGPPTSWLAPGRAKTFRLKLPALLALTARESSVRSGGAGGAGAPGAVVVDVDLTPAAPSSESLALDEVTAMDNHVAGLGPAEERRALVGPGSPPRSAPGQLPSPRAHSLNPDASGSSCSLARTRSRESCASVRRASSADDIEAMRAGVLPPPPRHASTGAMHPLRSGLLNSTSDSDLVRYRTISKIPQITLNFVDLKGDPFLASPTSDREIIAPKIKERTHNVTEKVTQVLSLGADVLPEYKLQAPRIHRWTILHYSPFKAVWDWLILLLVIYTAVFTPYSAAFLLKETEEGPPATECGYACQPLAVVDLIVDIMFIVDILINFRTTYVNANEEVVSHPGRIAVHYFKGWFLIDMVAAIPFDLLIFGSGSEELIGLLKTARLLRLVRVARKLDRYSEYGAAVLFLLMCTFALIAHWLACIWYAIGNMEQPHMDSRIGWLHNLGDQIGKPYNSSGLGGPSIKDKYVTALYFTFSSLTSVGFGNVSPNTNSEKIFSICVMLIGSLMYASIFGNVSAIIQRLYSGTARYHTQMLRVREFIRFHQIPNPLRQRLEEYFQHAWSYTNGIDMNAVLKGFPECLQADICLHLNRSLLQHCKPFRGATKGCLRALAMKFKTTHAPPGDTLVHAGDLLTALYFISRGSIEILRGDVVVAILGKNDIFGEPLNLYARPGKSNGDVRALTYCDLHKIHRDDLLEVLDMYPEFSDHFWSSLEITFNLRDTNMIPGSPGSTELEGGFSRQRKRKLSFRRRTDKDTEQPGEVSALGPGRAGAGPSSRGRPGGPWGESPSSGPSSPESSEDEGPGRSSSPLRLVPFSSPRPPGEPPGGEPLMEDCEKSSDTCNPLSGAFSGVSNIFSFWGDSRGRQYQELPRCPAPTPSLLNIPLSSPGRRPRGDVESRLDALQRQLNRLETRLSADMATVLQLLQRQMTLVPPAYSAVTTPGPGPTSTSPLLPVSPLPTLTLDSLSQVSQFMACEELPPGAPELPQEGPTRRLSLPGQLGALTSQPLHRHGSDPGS
Chain of Histamine H1 receptor (Homo sapiens) (P35367 whole entry): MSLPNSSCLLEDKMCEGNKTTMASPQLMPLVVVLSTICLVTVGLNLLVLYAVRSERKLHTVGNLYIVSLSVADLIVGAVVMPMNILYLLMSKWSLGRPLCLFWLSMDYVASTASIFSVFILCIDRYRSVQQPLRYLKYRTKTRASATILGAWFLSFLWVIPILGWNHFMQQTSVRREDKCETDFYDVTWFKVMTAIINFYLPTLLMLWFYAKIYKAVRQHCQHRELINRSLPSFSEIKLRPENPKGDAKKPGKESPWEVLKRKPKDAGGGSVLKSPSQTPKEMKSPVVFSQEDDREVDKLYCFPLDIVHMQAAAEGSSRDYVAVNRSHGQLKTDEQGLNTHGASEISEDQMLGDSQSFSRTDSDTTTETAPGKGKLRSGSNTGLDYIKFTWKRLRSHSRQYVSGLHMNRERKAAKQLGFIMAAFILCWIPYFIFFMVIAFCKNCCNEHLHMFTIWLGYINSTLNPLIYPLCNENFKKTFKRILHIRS
Chain of Histamine H3 receptor (Rattus norvegicus, UniProt Q9QYN8) (Q9QYN8 whole entry): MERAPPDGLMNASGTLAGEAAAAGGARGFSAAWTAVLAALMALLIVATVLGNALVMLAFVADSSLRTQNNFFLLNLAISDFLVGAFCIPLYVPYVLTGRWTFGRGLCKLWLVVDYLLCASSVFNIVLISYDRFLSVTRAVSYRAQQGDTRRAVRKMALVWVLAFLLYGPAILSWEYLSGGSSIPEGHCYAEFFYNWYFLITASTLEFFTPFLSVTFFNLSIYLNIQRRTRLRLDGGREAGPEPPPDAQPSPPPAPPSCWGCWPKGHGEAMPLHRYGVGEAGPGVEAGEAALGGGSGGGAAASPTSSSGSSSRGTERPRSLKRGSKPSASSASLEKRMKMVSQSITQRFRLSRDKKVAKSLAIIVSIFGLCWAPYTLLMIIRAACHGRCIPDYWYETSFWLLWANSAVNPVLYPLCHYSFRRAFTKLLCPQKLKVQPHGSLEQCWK
Chain of Histamine H2 receptor (Homo sapiens) (P25021 whole entry): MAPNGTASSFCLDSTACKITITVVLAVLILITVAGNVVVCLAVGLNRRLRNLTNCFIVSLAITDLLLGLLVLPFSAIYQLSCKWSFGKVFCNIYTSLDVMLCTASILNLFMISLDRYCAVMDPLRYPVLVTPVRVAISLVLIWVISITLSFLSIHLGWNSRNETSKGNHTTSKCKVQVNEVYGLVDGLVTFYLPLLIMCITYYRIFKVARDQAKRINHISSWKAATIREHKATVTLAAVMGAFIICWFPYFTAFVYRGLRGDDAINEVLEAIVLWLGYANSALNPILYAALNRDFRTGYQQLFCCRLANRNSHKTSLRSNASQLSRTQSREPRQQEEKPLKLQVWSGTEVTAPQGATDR
Chain of Cytochrome P450 2D6 (P10635 whole entry): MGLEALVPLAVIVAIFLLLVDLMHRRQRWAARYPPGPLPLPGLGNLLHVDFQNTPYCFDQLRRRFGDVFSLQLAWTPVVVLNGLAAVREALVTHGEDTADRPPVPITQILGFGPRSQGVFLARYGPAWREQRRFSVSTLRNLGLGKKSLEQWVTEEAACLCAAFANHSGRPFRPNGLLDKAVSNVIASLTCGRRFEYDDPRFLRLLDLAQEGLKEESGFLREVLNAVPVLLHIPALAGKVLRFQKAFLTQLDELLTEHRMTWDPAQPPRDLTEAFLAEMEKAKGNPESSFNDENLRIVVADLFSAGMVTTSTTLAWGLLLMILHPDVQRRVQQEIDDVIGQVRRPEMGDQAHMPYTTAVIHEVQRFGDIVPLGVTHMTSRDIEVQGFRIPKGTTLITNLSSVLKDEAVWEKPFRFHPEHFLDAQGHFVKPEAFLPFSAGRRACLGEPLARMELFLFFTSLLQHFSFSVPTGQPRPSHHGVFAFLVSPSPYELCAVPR
Chain of Cytochrome P450 2C19 (P33261 whole entry): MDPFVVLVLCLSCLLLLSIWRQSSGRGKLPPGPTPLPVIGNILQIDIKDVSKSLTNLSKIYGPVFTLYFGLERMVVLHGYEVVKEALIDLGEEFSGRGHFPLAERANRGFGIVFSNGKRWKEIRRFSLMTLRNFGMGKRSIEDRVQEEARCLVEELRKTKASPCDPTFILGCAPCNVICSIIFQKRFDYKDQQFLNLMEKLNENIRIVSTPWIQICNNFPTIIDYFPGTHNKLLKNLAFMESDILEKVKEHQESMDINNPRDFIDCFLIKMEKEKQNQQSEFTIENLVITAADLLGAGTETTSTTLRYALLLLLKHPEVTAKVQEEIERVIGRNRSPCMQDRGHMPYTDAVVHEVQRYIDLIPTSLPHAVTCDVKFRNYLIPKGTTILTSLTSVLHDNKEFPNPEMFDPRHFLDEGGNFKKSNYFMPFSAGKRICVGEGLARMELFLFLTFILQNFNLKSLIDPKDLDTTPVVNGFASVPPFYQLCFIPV
Chain of Cytochrome P450 2C9 (P11712 whole entry): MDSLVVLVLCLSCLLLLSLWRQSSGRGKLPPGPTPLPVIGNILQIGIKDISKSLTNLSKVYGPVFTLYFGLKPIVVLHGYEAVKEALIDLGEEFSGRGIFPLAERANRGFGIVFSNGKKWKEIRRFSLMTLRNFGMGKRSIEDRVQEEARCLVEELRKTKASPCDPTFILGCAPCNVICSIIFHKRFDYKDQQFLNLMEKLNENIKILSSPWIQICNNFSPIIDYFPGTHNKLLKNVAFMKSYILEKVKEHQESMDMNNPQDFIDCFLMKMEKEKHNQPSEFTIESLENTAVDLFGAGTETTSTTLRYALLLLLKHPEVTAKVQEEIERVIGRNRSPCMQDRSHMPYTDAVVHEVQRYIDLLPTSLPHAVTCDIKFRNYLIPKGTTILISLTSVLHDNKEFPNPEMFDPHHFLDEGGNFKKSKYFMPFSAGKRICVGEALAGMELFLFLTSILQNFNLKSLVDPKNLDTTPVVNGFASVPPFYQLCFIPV

- bioavailability [2]: 92%
- Ki [3]: 0.0073 µM
- half-life [4]: 8.6 h
- Cmax [5]: 502 ng/mL
- fraction unbound [6]: 0.23
- half-life [9]: > 0.667 h
- fraction unbound [11]: 0.23
- solubility [12]: 800 µg/mL (≈ 2360 µM)
- AUC [13]: 2960 ng·h/mL
- Vd [14]: 4.1 L/kg
- Vd [15]: 6 L/kg
- inhibition [16]: < 10%
- Papp [17]: 16.4 ×10⁻⁶ cm/s
- IC50 [19]: > 30 µM
- bioavailability [20]: 94%
- Ki [22]: 0.0038 µM
- half-life [23]: > 0.667 h
- clearance [24]: 17 mL/min/kg
- half-life [25]: 3 h
- half-life [26]: > 0.667 h
- bioavailability [27]: 114%
- Kp at 6 h [28]: 3.6
- IC50 [29]: > 30 µM
- IC50 [30]: > 30 µM
- Vd [32]: 3.7 L/kg
- inhibition [33]: < 10%
- fraction unbound [34]: 0.23
- Cmax [35]: 888 ng/mL
- IC50 [36]: > 30 µM
- solubility [40]: > 1000 µg/mL
- EC50 [41]: 0.0004 µM
- Kp at 6 h [42]: 5.1
- half-life [43]: > 0.667 h
- half-life [44]: > 0.667 h
- clearance [46]: 8 mL/min/kg
- Cmax [48]: 645 ng/mL
- AUC [51]: 7190 ng·h/mL
- clearance [52]: 16 mL/min/kg
- inhibition [53]: < 10%
- AUC [54]: 8320 ng·h/mL
- half-life [55]: 2.6 h
- IC50 [56]: > 30 µM
Compound: O=C1NN=C(c2ccc(OC3CCN(C4CCC4)CC3)cc2)[C@H]2C[C@@H]12
- IC50 [1]: 14 µM
- Activity [7]: Non-toxic
- Activity [8]: Active
- Activity [10]: Dose-dependent effect
- Activity [18]: >90%
- Activity [21]: Non-toxic
- Time [31]: 174 min
- Activity [37]: 90%
- Time [38]: 189 min
- Time [39]: 129 min
- Time [45]: 121 min
- ED50 [47]: 0.14 mg/kg
- inhibition [47]: Dose-dependent effect
- Activity [49]: Non-toxic
- Time [50]: 217 min
